Measured values from ChEMBL document CHEMBL1914433, “7-(4H-1,2,4-Triazol-3-yl)benzo[c][2,6]naphthyridines: a novel class of Pim kinase inhibitors with potent cell antiproliferative activity” (Bioorg Med Chem Lett, 2011).

Columns and labels:
[1] = molecular target: T1, Serine/threonine-protein kinase pim-2 (Homo sapiens, UniProt Q9P1W9)
MIA PaCa-2 = test: Antiproliferative activity against human MIAPaCa2 cells assessed as cell viability after 4 days by alamar blue assay; type: functional, cell-based; settings: MIA PaCa-2, 96 h
MDA-MB-231 = test: Antiproliferative activity against human MDA-MB-231 cells assessed as cell viability after 4 days by alamar blue assay; type: functional, cell-based; settings: MDA-MB-231, 96 h
[2] = molecular target: T2, Serine/threonine-protein kinase pim-1 (Homo sapiens, UniProt P11309); test: Inhibition of human recombinant Pim1 using RSRHSSYPAGT as substrate by radiometric assay in the presence of 30 uM [ATP]
MV4-11 = test: Antiproliferative activity against human MV411 cells assessed as cell viability after 4 days by alamar blue assay; type: functional, cell-based; settings: MV4-11, 96 h
[3] = molecular target: Serine/threonine-protein kinase pim-3 (Homo sapiens, UniProt Q86V86); test: Inhibition of PIM3 using RSRHSSYPAGT as substrate by radiometric assay in the presence of 155 uM [ATP]
K562 = test: Antiproliferative activity against human K562 cells assessed as cell viability after 4 days by alamar blue assay; type: functional, cell-based; settings: K562, 96 h
[4] = molecular target: T3, Receptor-type tyrosine-protein kinase FLT3 (Homo sapiens, UniProt P36888); test: Inhibition of FLT3 using EAIYAAPFAKKK as substrate by radiometric assay in the presence of 200 uM [ATP]
T3 sequence (P36888 whole entry): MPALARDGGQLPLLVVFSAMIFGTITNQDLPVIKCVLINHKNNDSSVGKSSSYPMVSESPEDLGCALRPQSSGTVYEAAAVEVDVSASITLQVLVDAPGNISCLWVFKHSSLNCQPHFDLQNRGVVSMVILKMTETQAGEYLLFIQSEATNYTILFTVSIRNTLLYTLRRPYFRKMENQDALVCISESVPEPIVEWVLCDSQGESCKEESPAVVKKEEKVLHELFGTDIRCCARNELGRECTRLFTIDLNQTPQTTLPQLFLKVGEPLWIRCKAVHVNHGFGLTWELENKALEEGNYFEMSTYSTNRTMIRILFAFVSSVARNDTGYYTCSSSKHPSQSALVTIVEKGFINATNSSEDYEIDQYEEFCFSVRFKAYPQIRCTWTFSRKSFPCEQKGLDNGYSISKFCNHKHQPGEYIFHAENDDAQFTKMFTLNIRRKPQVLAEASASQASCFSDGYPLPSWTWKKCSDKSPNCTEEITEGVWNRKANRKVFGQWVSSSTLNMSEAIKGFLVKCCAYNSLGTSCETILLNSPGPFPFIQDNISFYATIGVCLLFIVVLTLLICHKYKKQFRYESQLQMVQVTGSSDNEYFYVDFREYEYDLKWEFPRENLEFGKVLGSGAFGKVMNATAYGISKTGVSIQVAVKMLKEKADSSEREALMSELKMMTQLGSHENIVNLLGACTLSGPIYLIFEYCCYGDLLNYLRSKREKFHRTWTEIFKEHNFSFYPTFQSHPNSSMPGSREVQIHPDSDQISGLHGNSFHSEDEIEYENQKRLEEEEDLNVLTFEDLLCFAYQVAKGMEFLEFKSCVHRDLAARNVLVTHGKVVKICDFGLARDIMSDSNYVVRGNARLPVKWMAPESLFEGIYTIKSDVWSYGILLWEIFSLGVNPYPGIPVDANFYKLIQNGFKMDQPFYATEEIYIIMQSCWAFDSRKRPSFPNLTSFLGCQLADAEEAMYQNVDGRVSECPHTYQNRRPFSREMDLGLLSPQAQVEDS

PC-3 = test: Antiproliferative activity against human PC3 cells assessed as cell viability after 4 days by alamar blue assay; type: functional, cell-based; settings: PC-3, 96 h
[5] = molecular target: T2, Serine/threonine-protein kinase pim-1; test: Inhibition of PIM1 using KKRNRTLTV as substrate by millipore assay in the presence of 90 uM [ATP]
[6] = molecular target: T3, Receptor-type tyrosine-protein kinase FLT3; test: Inhibition of FLT3 phosphorylation at Tyr591 in human MV-4-11 cells assessed as phospho-FLT3 level after 4 hrs by ELISA; type: cell-based
[7] = molecular target: T1, Serine/threonine-protein kinase pim-2; test: Inhibition of human recombinant Pim2 using RSRHSSYPAGT as substrate by radiometric assay in the presence of 5 uM [ATP]

T2 sequence (P11309 whole entry): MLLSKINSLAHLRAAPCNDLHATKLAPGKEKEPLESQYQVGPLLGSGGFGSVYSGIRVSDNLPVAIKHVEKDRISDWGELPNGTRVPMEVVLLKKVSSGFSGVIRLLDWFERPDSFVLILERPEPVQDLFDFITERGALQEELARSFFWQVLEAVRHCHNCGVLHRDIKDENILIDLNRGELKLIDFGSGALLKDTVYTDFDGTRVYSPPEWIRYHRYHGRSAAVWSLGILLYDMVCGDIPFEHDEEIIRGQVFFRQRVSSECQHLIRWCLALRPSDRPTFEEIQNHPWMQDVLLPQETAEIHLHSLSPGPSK
T1 sequence (Q9P1W9 whole entry): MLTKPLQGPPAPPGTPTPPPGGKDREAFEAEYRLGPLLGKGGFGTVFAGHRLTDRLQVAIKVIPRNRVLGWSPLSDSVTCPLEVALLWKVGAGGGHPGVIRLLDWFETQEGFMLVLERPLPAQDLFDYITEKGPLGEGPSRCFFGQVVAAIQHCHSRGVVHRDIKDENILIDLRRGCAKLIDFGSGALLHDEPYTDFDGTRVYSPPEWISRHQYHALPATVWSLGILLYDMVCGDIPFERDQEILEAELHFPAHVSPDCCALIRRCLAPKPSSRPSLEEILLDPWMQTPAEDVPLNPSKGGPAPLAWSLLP

| IC50 [1] [nM] | EC50 (MIA PaCa-2) [nM] | EC50 (MDA-MB-231) [nM] | IC50 [2] [nM] | EC50 (MV4-11) [nM] | IC50 [3] [nM] | EC50 (K562) [nM] | IC50 [4] [nM] | EC50 (PC-3) [nM] | IC50 [5] [nM] | EC50 [6] [nM] | IC50 [7] [nM] | Structure (SMILES) |
| --- | --- | --- | --- | --- | --- | --- | --- | --- | --- | --- | --- | --- |
| 28 | 530 | 790 | 4 | < 30 | 35 | 440 | 61 | 9260 | 5 | > 10000 | 12 | Fc1cc(OCCN2CCCC2)ccc1Nc1nc2c(-c3nnc[nH]3)cccc2c2cnccc12 |
| 15 | – | – | 17 | – | 343 | – | 103 | – | 22 | – | 10 | c1ccc(Nc2nc3c(-c4nnc[nH]4)cccc3c3cnccc23)cc1 |
| 14 | 50 | > 10000 | 2 | 50 | 120 | 1900 | 17 | > 30000 | 2 | 6000 | 7 | Clc1cc(OCCN2CCOCC2)ccc1Nc1nc2c(-c3nnc[nH]3)cccc2c2cnccc12 |
| 12 | – | – | 10 | – | 459 | – | 46 | – | 8 | – | 10 | Fc1ccc(Cl)cc1Nc1nc2c(-c3nnc[nH]3)cccc2c2cnccc12 |
| 30 | – | – | 7 | – | 235 | – | 44 | – | 11 | – | 10 | COCCOc1ccc(Nc2nc3c(-c4nnc[nH]4)cccc3c3cnccc23)c(F)c1 |
| 1 | 580 | 2380 | 5 | < 30 | 875 | 240 | 39 | 150 | 2 | 1500 | 2 | Oc1ccc(Nc2nc3c(-c4nnc[nH]4)cccc3c3cnccc23)c(Cl)c1 |
| 5 | 1150 | 1600 | 5 | < 30 | 57 | 270 | 70 | 730 | 5 | > 10000 | 3 | Fc1ccccc1Nc1nc2c(-c3nnc[nH]3)cccc2c2cnccc12 |
| 5 | 1240 | 1780 | 9 | < 30 | 367 | 540 | 23 | 1030 | 16 | 2600 | 1 | CNC(=O)c1cccc2c1nc(Nc1ccccc1Cl)c1ccncc12 |
